Measurements as given in a compilation of properties of binary mixtures (doi:10.1016/j.molliq.2017.08.088).

Experiment: xn = mol fraction of the nth substance listed
Settings: 101 kPa

CN(CCO)CCO + CCCC[n+]1ccn(C)c1.F[B-](F)(F)F
viscosity [mPa·s]
Settings	x2 = 0.1002	x2 = 0.1974	x2 = 0.3	x2 = 0.4001	x2 = 0.4998	x2 = 0.6	x2 = 0.6997	x2 = 0.7998	x2 = 0.8999
293.15 K	89.3	82.9	78.9	75.2	73.6	74.2	79.1	87.9	–
303.15 K	49.9	46.2	–	42.4	42.4	43.8	47.5	53.1	–
313.15 K	30	28	26.4	26.1	26.4	27.7	30.4	34	41.2
323.15 K	18.9	–	17.2	17.2	17.7	–	20.6	23.3	27.8
333.15 K	12.75	–	11.84	12.03	12.44	13.35	14.8	–	19.8
